Broadly, the logD is the decadic logarithm of the distribution of all forms, ionised or not, between an organic phase and buffer at a given pH. The term IC50 denotes the point on the concentration scale where inhibition reaches its midpoint. The pKa is the pH at which an ionisable group is half protonated. Low values mean a stronger acid or weaker base, high ones a weaker acid or stronger base. One may read the Papp A→B as the apparent permeability from the apical to the basolateral side of a cell layer. What is called solubility is the concentration that dissolves in the medium under given conditions. A low value points to a poorly soluble substance.

In brackets after ≈: the same amount, converted by molar mass. A value given as a limit tells only on which side of the number the result lay.

Results on 1 molecule are retold here after ChEMBL document CHEMBL2375263, “Identification and design of a novel series of MGAT2 inhibitors” (Bioorg Med Chem Lett, 2013).

A short description of data set [1]: Lipophilicity, log D of the compound at pH 7.4. The class given is physicochemical. The following applies: buffer.
A short description of data set [2]: Time dependent inhibition of CYP450 (unknown origin). The format is ADME. The following applies: human.
Data set [3] can be described thus: Inhibition of CYP450 (unknown origin). The format is ADME. The following applies: human.
Data set [4] deals with T1, Acyl-CoA wax alcohol acyltransferase 1 (Homo sapiens, UniProt Q58HT5).
T1 sequence (Q58HT5 whole entry): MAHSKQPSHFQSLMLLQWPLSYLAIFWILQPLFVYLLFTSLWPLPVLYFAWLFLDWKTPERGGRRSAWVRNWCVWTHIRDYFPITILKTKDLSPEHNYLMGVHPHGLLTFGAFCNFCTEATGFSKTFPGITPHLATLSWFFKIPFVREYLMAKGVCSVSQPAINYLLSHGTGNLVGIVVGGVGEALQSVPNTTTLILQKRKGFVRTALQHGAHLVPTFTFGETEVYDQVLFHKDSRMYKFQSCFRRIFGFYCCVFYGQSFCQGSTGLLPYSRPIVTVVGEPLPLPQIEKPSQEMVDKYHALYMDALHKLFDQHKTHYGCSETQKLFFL
As to the kind of experiment: Inhibition of human recombinant AWAT1 expressed in insect cell membrane using palmitoleyl alcohol and [14C]stearoyl coenzyme A as substrate after 10 to 15 mins by liquid scintillation counting.

Data set [5] can be described thus: Intrinsic clearance in human liver microsomes as 1 umol/l measured up to 30 mins by LC-MS analysis. The following applies: read-out: CLH. The format is ADME, Microsome. Background: Liver microsomes are a subcellular fraction often used to study metabolism.
In the next data set the test system is Liver microsomes. Description: Ratio of compound-glutathione adduct formation to clozapine-glutathione adduct formation in human liver microsomes at 10 umol/l after 30 mins by glutathione trapping method. The class given is ADME, Microsome. The following applies: 0.5 h, 10 µM.
Data set [6] concerns the target T2, Acyl-CoA wax alcohol acyltransferase 2 (Homo sapiens, UniProt Q6E213).
T2 sequence (Q6E213 whole entry): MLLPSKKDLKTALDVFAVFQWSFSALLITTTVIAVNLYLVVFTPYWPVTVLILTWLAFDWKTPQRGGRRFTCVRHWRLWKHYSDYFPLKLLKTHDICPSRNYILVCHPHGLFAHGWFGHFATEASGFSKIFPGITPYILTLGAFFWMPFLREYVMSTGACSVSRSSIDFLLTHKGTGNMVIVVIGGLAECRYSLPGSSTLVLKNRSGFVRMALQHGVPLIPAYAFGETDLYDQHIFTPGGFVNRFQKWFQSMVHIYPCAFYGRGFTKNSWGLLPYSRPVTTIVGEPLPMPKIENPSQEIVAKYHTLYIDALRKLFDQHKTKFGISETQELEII
Description: Inhibition of human recombinant AWAT2 expressed in insect cell membrane using cetyl alcohol and [14C]oleoyl coenzyme A as substrate after 10 to 15 mins by liquid scintillation counting.

Data set [7] can be described thus: Dissociation constant, pKa of the compound. The format is physicochemical.
Data set [8] is described as follows: Apparent permeability from apical side to basolateral side of human Caco2 cells at 10 umol/l measured up to 120 mins by LCMS analysis. The class given is ADME, cell-based. The following applies: Caco-2.
Data set [9] deals with T3, Diacylglycerol O-acyltransferase 1 (Homo sapiens, UniProt O75907).
T3 sequence (O75907 whole entry): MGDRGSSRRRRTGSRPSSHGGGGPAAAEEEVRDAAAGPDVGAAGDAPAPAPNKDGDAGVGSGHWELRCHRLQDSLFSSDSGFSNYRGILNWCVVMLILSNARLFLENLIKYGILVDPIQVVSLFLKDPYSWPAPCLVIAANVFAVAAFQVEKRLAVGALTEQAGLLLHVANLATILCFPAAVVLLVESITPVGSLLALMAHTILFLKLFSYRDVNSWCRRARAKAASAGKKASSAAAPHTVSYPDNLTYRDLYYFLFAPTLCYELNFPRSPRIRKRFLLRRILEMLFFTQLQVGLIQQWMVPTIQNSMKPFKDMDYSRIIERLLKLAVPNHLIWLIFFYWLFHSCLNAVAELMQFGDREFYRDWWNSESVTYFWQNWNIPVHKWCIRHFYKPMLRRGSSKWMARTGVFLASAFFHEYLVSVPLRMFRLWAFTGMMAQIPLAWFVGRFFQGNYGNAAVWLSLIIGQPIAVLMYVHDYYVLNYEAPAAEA
As to the kind of experiment: Inhibition of human recombinant DGAT1 expressed in Sf9 cells using dioleoyl-sn-glycerol and [14C]oleoyl coenzyme A as substrate after 30 mins by liquid scintillation counting.

The target in data set [10] is T4, Diacylglycerol O-acyltransferase 2 (Homo sapiens, UniProt Q96PD7).
T4 sequence (Q96PD7 whole entry): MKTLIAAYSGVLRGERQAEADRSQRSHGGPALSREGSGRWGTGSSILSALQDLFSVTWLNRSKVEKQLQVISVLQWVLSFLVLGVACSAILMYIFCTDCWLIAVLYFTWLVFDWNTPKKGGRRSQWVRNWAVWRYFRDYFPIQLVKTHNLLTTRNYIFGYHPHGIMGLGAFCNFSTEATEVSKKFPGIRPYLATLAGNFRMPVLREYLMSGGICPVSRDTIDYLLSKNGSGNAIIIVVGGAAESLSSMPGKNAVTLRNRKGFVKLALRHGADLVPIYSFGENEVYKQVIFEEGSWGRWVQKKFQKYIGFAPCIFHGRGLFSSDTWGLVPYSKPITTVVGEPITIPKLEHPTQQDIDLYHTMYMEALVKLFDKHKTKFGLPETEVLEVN
As to the kind of experiment: Inhibition of human recombinant DGAT2 using dioleoyl-sn-glycerol and [14C]oleoyl coenzyme A as substrate after 30 mins by liquid scintillation counting.

The nature of data set [11]: Solubility of the compound. The format is physicochemical.

For the molecule `CCC1(C)NC(=O)c2cc(S(=O)(=O)Nc3ccc(Cl)cc3)ccc2NC1=O` (racemic), the logD in data set [1] turned out to be 2.9. For the same molecule, the “inhibition (INH)” value in data set [2] and in [3] was “Not Active” throughout. In addition, the IC50 is over 100 µM in [4], over 100 µM in data set [6], over 10 µM in data set [9] and over 10 µM in data set [10]. Besides, in data set [5], the microsomal CLint at 1 µM came to 3 µL/min/mg. Also, the Ratio with Liver microsomes is recorded as 0.4. The pKa in data set [7] is 8.1. Also, the Papp A→B at 2 h, 10 µM in [8] is 5.5 ×10⁻⁶ cm/s. Also, in [11], the concentration in solution (solubility) came to 2 µM (≈ 0.816 µg/mL).
